# Read-outs that look alike come from different tables or passages of the source. Where no end group is shown, it is not given here.
# What was measured:
# Liposome pulldown = assay type: binding; details: for Fraction of total protein (%), bound fraction: pH 5.5 (20 mM MES); for Fraction of total protein (%), bound fraction / Fraction of total protein (%), Bound: 1 µg defensin
# Experimental: (§1) Liposomes were prepared using natural chicken egg L-α-phophatidylcholine and L-α-phosphatidic acid dissolved in chloroform (Avanti Polar Lipids), and liposome pulldowns (at pH 7.4) and calcein-encapsulated liposome lysis assays were performed as previously described. For liposome pulldowns performed at pH 5.5, the same protocol was used with minor variations. The desiccated lipid films were resuspended in 20 mM MES pH 7.4 and were washed in the same buffer during the centrifugation process. After the final wash step, the liposome pellets were resuspended in 20 mM MES pH 5.5 and incubated with CpoBD13 or mutants thereof (also prepared in the same acidic buffer).
# C. albicans ATCC 10231 = experiment: Fungal growth inhibition assay; assay type: cell-based, Candida albicans
# Experimental: For fungal growth assays, overnight cultures of C. albicans ATCC 10231 cells (yeast peptone dextrose broth, 30°C, shaking at 160 rpm) were pelleted (2000 g, 5 min), washed once in 0.5× potato dextrose broth (BD Biosciences, Franklin Lakes, NJ) and finally resuspended in the same media. Cells were seeded onto a 96-well plate (400 cells, 50 µL) and treated with an equal volume of varying concentrations of defensin in 0.5× potato dextrose broth. After incubating the samples (24 h, 30 °C), the plates were shaken to distribute the cells and growth was determined by performing a 9-well scan (600 nm) using a Spectramax M5e microplate reader (Molecular Devices, San Jose, CA). For assays testing defensin salt tolerance, C. albicans cells were instead resuspended in 1x potato dextrose broth and treated with an equal volume of CpoBD13 + NaCl solution at their intended concentrations. Propidium iodide (PI) uptake assays were performed by preparing the cells as per the standard growth inhibition assay however they were instead seeded onto a U-bottom 96-well plate (50,000 cells, 25 µL). […] For PI uptake experiments performed at a specific pH, the same method was followed with the exception that cells were resuspended in 1× potato dextrose broth while defensin titrations were diluted in 40 mM MES buffer at the intended pH. An example PI uptake gating strategy is presented in Supplementary Fig. 1d.
# [1] = Calcein-encapsulated liposome lysis assay; assay type: biochemical
# Experimental: as §1
# [2] = PC only liposomes, pH 7.4, replicate 1
# [3] = PC only liposomes, pH 7.4, replicate 2
# [4] = PC only liposomes, pH 7.4, replicate 3
# [5] = PC:PA 95:5 liposomes, pH 7.4, replicate 1
# [6] = PC:PA 95:5 liposomes, pH 7.4, replicate 2
# [7] = PC:PA 95:5 liposomes, pH 7.4, replicate 3
substance,measurement,setting,value
"CpoBD13: saltwater crocodile β-defensin 13, histidine-rich, three disulphide bonds, recombinantly expressed in Pichia pastoris (NGSYYSTLQCRNNHGHCRRLCFHGEQWIGNCNGRHQHCCK; disulfide (positions not given here); also: three disulphide bonds, pairings not given here)","Fraction of total protein (%), bound fraction","Liposome pulldown; PC only liposomes, replicate 1",18.4161%
same,"Fraction of total protein (%), bound fraction","Liposome pulldown; PC only liposomes, replicate 2",18.4773%
same,"Fraction of total protein (%), bound fraction","Liposome pulldown; PC only liposomes, replicate 3",29.8053%
same,"Fraction of total protein (%), Bound",Liposome pulldown; [2],12.3509%
same,"Fraction of total protein (%), Bound",Liposome pulldown; [3],1.776%
same,"Fraction of total protein (%), Bound",Liposome pulldown; [4],33.499%
same,"Fraction of total protein (%), Unbound",Liposome pulldown; [2],82.3399%
same,"Fraction of total protein (%), Unbound",Liposome pulldown; [3],73.2719%
same,"Fraction of total protein (%), Unbound",Liposome pulldown; [4],23.4493%
same,binding to PA-enriched liposomes,"Liposome pulldown; PC:PA 95:5, pH 7.4",preferentially bound
same,"Fraction of total protein (%), bound fraction","Liposome pulldown; PC:PA 95:5 liposomes, replicate 1",88.2406%
same,"Fraction of total protein (%), bound fraction","Liposome pulldown; PC:PA 95:5 liposomes, replicate 2",92.9019%
same,"Fraction of total protein (%), bound fraction","Liposome pulldown; PC:PA 95:5 liposomes, replicate 3",89.3441%
same,"Fraction of total protein (%), Bound",Liposome pulldown; [5],40.526%
same,"Fraction of total protein (%), Bound",Liposome pulldown; [6],42.0716%
same,"Fraction of total protein (%), Bound",Liposome pulldown; [7],52.0773%
same,"Fraction of total protein (%), Unbound",Liposome pulldown; [5],36.1151%
same,"Fraction of total protein (%), Unbound",Liposome pulldown; [6],13.782%
same,"Fraction of total protein (%), Unbound",Liposome pulldown; [7],17.5375%
same,binding to PC only liposomes,Liposome pulldown; pH 7.4,negligible binding
same,IC50,"C. albicans ATCC 10231; 24 h, Replicate 1, unit not in table, µM, read-out: IC50",4.19 µM
same,IC50,"C. albicans ATCC 10231; 24 h, Replicate 2, unit not in table, µM, read-out: IC50",4.11 µM
same,IC50,"C. albicans ATCC 10231; 24 h, Replicate 3, unit not in table, µM, read-out: IC50",4.1 µM
same,IC50,"C. albicans ATCC 10231; 24 h, mean, n = 3, assessed range 0–10 µM, read-out: IC50 of fungal growth inhibition",4.1 µM
same,IC50,"C. albicans ATCC 10231; Replicate 1, read-out: IC50",5.39 µM
same,IC50,"C. albicans ATCC 10231; Replicate 2, read-out: IC50",5.34 µM
same,IC50,"C. albicans ATCC 10231; Replicate 3, read-out: IC50",5.46 µM
same,lysis of PC:PA liposomes relative to PC only liposomes,"[1]; 20 µM, 30 min, calcein release",significant increase in the lysis
same,Lysis (%),"[1]; PC liposomes, replicate 1",54.3884%
same,Lysis (%),"[1]; PC liposomes, replicate 2",55.3559%
same,Lysis (%),"[1]; PC liposomes, replicate 3",54.0992%
same,Lysis (%),"[1]; PC:PA liposomes, replicate 1",67.3935%
same,Lysis (%),"[1]; PC:PA liposomes, replicate 2",66.6111%
same,Lysis (%),"[1]; PC:PA liposomes, replicate 3",65.2527%
same,Lysis (%),"[1]; PC:PA, 20 µM, 0 min, replicate 1",25.7371%
same,Lysis (%),"[1]; PC:PA, 20 µM, 0 min, replicate 2",19.5617%
same,Lysis (%),"[1]; PC:PA, 20 µM, 0 min, replicate 3",31.0288%
same,Lysis (%),"[1]; PC:PA, 20 µM, 2 min, replicate 1",44.3847%
same,Lysis (%),"[1]; PC:PA, 20 µM, 2 min, replicate 2",47.8762%
same,Lysis (%),"[1]; PC:PA, 20 µM, 2 min, replicate 3",47.362%
same,Lysis (%),"[1]; PC:PA, 20 µM, 4 min, replicate 1",50.7757%
same,Lysis (%),"[1]; PC:PA, 20 µM, 4 min, replicate 2",55.3375%
same,Lysis (%),"[1]; PC:PA, 20 µM, 4 min, replicate 3",52.3336%
same,Lysis (%),"[1]; PC:PA, 20 µM, 6 min, replicate 1",56.1428%
same,Lysis (%),"[1]; PC:PA, 20 µM, 6 min, replicate 2",57.6724%
same,Lysis (%),"[1]; PC:PA, 20 µM, 6 min, replicate 3",56.2525%
same,Lysis (%),"[1]; PC:PA, 20 µM, 8 min, replicate 1",57.9433%
same,Lysis (%),"[1]; PC:PA, 20 µM, 8 min, replicate 2",61.2343%
same,Lysis (%),"[1]; PC:PA, 20 µM, 8 min, replicate 3",57.4403%
same,Lysis (%),"[1]; PC:PA, 20 µM, 10 min, replicate 1",60.1091%
same,Lysis (%),"[1]; PC:PA, 20 µM, 10 min, replicate 2",61.4149%
same,Lysis (%),"[1]; PC:PA, 20 µM, 10 min, replicate 3",58.1894%
same,Lysis (%),"[1]; PC:PA, 20 µM, 12 min, replicate 1",61.5771%
same,Lysis (%),"[1]; PC:PA, 20 µM, 12 min, replicate 2",62.8368%
same,Lysis (%),"[1]; PC:PA, 20 µM, 12 min, replicate 3",59.7071%
same,Lysis (%),"[1]; PC:PA, 20 µM, 14 min, replicate 1",62.1444%
same,Lysis (%),"[1]; PC:PA, 20 µM, 14 min, replicate 2",63.0568%
same,Lysis (%),"[1]; PC:PA, 20 µM, 14 min, replicate 3",60.7639%
same,Lysis (%),"[1]; PC:PA, 20 µM, 16 min, replicate 1",64.0158%
same,Lysis (%),"[1]; PC:PA, 20 µM, 16 min, replicate 2",63.5735%
same,Lysis (%),"[1]; PC:PA, 20 µM, 16 min, replicate 3",61.3601%
same,Lysis (%),"[1]; PC:PA, 20 µM, 18 min, replicate 1",65.2175%
same,Lysis (%),"[1]; PC:PA, 20 µM, 18 min, replicate 2",63.6472%
same,Lysis (%),"[1]; PC:PA, 20 µM, 18 min, replicate 3",61.6924%
same,Lysis (%),"[1]; PC:PA, 20 µM, 20 min, replicate 1",64.1335%
